Laboratory results published in PMC9287337 (Scientific Reports, 2022).
Read-outs that look alike come from different tables or passages of the source.

Legend:
[1] = test system: p-Smad1/5/8 (Smad phosphorylation); assay: Western blot of p-Smad normalized to total Smad; format: cell-based; details: Mus musculus, 0.5 h, 30 min, read-out: p-Smad level, percent of control
Protocol: To investigate whether the new indolyl-benzimidazole compounds activate BMP receptor-dependent signaling pathways, the levels of p-Smad in serum-starved C2C12 cells, treated for 30 min with SY-LB-35 and SY-LB-57, were assessed by Western blot analysis. Whole cell lysates of treated C2C12 cells were probed for p-Smad using phospho-specific anti-Smad antibodies. p-Smad levels were normalized against total Smad levels.
(§1) C2C12 cells (3 mL) were seeded into 35 mm dishes at 7.5 × 10^4 cells/mL in complete growth medium, incubated to reach 80% confluence and serum-starved for 16–18 h. […] Thereafter, the cultures were washed with ice-cold 1X TBS for 2 min. Lysis Buffer (Cell Signaling Technology, Danvers, MA, USA) supplemented with 1 mM PMSF (phenylmethylsulphonyl fluoride) was added to the cultures and whole cell lysates were prepared.
(§2) Laemmli sample buffer (4X) was added to the whole cell lysates (20 µg) to a final concentration of 1X and heated at 100 °C for 5 min. The samples were immediately cooled on ice for 5 min and centrifuged at 9500 rpm for 2 min at RT. The samples and the Precision Plus Protein Standard (5 µL; Bio-Rad, Hercules, CA, USA) were loaded on 12% SDS polyacrylamide gels. Protein was separated using the Bio-Rad Mini Protean II Gel Electrophoresis System at 135 V. Meanwhile, 0.2 µm nitrocellulose membranes were pre-incubated in cold 1X Transfer Buffer (10 mM Tris/2.5 mM glycine/20% methanol) for at least 30 min. Next, the separated proteins were transferred at 100 V onto the pre-equilibrated nitrocellulose membranes for 1 h in Transfer Buffer, followed by blocking in 5% BSA/0.1% Tween 20/1X TBS for 30 min. The membranes were incubated overnight at 4 °C with the desired primary rabbit monoclonal antibody (p-Smad1/5(S463/465)/9(S465/467), Smad1 (D5907) XP®, p-Akt (Ser473) (D9E) XP®, or Akt (pan) (C67E7), p-SAPK/JNK (Thr183/Tyr185), SAPK/JNK, β-actin (Cell Signaling Technologies, Danvers, MA, USA)) or rabbit polyclonal antibody (phospho-PI3 Kinase p85 (Tyr458)/p55 (Tyr199) antibody (Cell Signaling Technologies, Danvers, MA, USA), p-p38 MAPK, p38 MAPK, p-ERK1, ERK1/2) (Abclonal, Woburn, MA, USA)) in Antibody Dilution Buffer (1% BSA/0.1% Tween 20/1X TBS) and then washed with 1X TBST (0.1% Tween 20/1X TBS) three times for 15 min. HRP-conjugated Goat Anti-Rabbit IgG secondary antibody (Santa Cruz Biotechnology, Inc., Dallas, TX, USA) in Antibody Dilution Buffer was added to the membranes for 1 h at RT followed by three 15-min washes with 1X TBST. Finally, the blots were developed using SuperSignal ™ West Femto HRP Substrate solutions (Thermo Scientific, Rockford, IL, USA) and analysed using the Omega Lum™ G Imaging System (San Francisco, CA, USA). Quantification of chemiluminescent signals was carried out using ImageJ (Image Processing and Analysis in Java 1.8.0_112).

[2] = test system: type I BMP receptor-dependent p-Smad; assay: Western blot of p-Smad in presence or absence of Dorsomorphin; format: cell-based, mouse; details: 1 µM, 30 min; for p-Smad level, DM(+): Dorsomorphin 10 µM pretreatment 1 h; for p-Smad level, DM(−): without Dorsomorphin
Protocol: Total whole cell lysates were prepared and used for Western blot analysis of Smad phosphorylation using anti-p-Smad antibodies.
as §1, §2

[3] = test system: PI3K enzyme; assay: PI3K ELISA on PI3K immunoprecipitated from treated cells; format: cell-based, mouse; details: 10 µM, 15 min; for Amount of PIP3 produced by PI3K enzyme: control 0.61 pmol
Protocol: PI3K enzyme was immunoprecipitated and processed in a PI3K ELISA (Fig. 7B). […] The enzyme activity is expressed as the amount of product (PIP3) generated in each sample by the PI3K enzyme per minute of reaction.
C2C12 cells were seeded in 35-mm dishes at 7 × 10^4 cells/mL and incubated at 37 °C in 5% CO2 to reach 80% confluency. […] Cells (~ 10^6) per treatment were collected to prepare whole cell lysates followed by exposure to three freeze/thaw cycles in liquid nitrogen. The samples were centrifuged and PI3K enzyme was immunoprecipitated with a mouse monoclonal anti-PI3K p55 γ antibody ((E-9), Santa Cruz Biotechnology, Dallas, TX, USA) for 1 h at 4 °C with gentle rocking and the immune complexes were collected overnight on a rocking platform at 4 °C with Dynabeads™ Protein A (Life Technologies, Carlsbad, CA, USA). The next day, the immunoprecipitated PI3K enzyme was collected by centrifugation processed for a PI3K ELISA (Echelon Biosciences, Salt Lake, City, UT, USA) according to the manufacturer’s instructions. Standard solutions of PIP3 (0, 0.22, 0.67, 2, 6, 18, and 54 pmol) were added to kinase reactions using recombinant PI3K enzyme (Echelon Biosciences, Salt Lake, City, UT, USA) and used to generate a standard curve for production of PIP3. The optical density of the PIP3 standards and the reactions containing immunoprecipitated PI3K from treated samples was measured at 450 nm.

[4] = Cell viability assay in presence or absence of Dorsomorphin; format: cell-based, mouse; details: mouse, serum-starved C2C12 cells
Protocol: To resolve whether the SY-LB-35 or SY-LB-57 compound requires type I BMP receptor activity for the induction of cell viability in C2C12 cells, cell viability assays were carried out in the presence or absence of 10 µM DM.
C2C12 cells (100 µL) were seeded in a 96-well plate at 5 × 10^5 cells/mL and incubated overnight in complete growth media to achieve 80% confluency followed by serum-starvation for 16–18 h. […] For BMP receptor inhibition, cell viability assays were carried out in presence or absence of Dorsomorphin (DM; 10 µM; Sigma Aldrich, St. Louis, MO, USA), a non-selective inhibitor of type I BMP receptor activity.
Next, reagents from the RealTime-Glo™ MT Cell Viability Assay Kit (Promega, Madison, WI, USA) were diluted in SS medium and used according to manufacturer’s protocol. Cellular luminescence was measured using the FilterMax F5 Multi-mode Microplate Reader (Molecular Devices, San Jose, CA, USA). Data from three independent experiments with individual experiments carried out in triplicate was determined and reported as a percentage of control.

[5] = Dorsomorphin 10 µM, read-out: Cell viability, DM(+)
[6] = without Dorsomorphin, read-out: Cell viability, DM(−)

## Oc1ccc2[nH]c(-c3nc4ccccc4[nH]3)cc2c1 [SY-LB-35]
[1]
  activity at 0.01 µM: 150%
  activity at 0.1 µM: 170%
  activity at 1 µM: 282%
  activity at 10 µM: 188%
[2]
  p-Smad level, DM(+): 112%
  p-Smad level, DM(−): 315%
[3]
  PIP3 produced, higher compared to control untreated cells: 26%
  Amount of PIP3 produced by PI3K enzyme: 0.77 pmol
[4]; [5]
  viability at 24 h, 0.01 µM: 98%
  viability at 24 h, 0.1 µM: 103%
  viability at 24 h, 1 µM: 102%
  viability at 24 h, 10 µM: 82%
  viability at 24 h, 100 µM: 30%
[4]; [6]
  viability at 24 h, 0.01 µM: 266%
  viability at 24 h, 0.1 µM: 269%
  viability at 24 h, 1 µM: 218%
  viability at 24 h, 10 µM: 147%
  viability at 24 h, 100 µM: 69%

## COc1ccc2[nH]c(-c3nc4ccccc4[nH]3)cc2c1 [SY-LB-57]
[1]
  activity at 0.01 µM: 234%
  activity at 0.1 µM: 316%
  activity at 1 µM: 276%
  activity at 10 µM: 357%
[2]
  p-Smad level, DM(+): 111%
  p-Smad level, DM(−): 172%
[3]
  PIP3 produced, higher compared to control untreated cells: 26%
  Amount of PIP3 produced by PI3K enzyme: 0.77 pmol
[4]; [5]
  viability at 24 h, 0.01 µM: 120%
  viability at 24 h, 0.1 µM: 107%
  viability at 24 h, 1 µM: 111%
  viability at 24 h, 10 µM: 111%
[4]; [6]
  viability at 24 h, 0.01 µM: 384%
  viability at 24 h, 0.1 µM: 380%
  viability at 24 h, 1 µM: 321%
  viability at 24 h, 10 µM: 289%
